{"source": "patent US20130224285A1", "about": "“ESTROGEN RECEPTOR ALPHA POLYPEPTIDE SEQUENCE, DIAGNOSTIC AND THERAPEUTIC APPLICATIONS THEREOF” (Universite Libre de Buxelles, priority 2010, published 2013)", "key": {"MCF-7 cells": {"system": "MCF-7 cells", "test": "Immunoprecipitation (G20 antibody) and Western blot of the endogenous ER-alpha degradation peptide in conditioned medium of treated MCF-7 cells", "type": "cell-based, human", "conditions": "conditioned medium of MCF-7 cells; estradiol 10^-8M, diethylstibestrol 10^-8M, 4-OHTamoxifen 10^-7M, Fulvestrant 10^-7M; vs control; FIG. 3; preliminary", "protocol": "MCF-7 breast cancer cell line was cultured for 48 hours in EMEM without Phenol-red, comprising 2 mM glutamine, 100 U/ml penicilline and 100 μg/ml streptomycine, supplemented with 10% steroid-free fetal calf serum. After three washing steps with serum/antibiotic-free EMEM without Phenol-red, the cells were cultured for 4 hours in the presence or absence of the E2 ligand dissolved in serum/antibiotic-free EMEM without Phenol-red, containing only 2 mM glutamine.\nAfter preclearing with 100 μl (50%) immobilised protein G on agarose beads (UltraLink®, Pierce) (2 hours at 4° C.) conditioned media (or EMEM for the negative control) were incubated with antibody G20 (Santa-Cruz) (except for the negative control) overnight at 4° C. After antibody capturing in 100 μl (50%) immobolised proteine G, the resin is heated to 85° C. for 5 minutes in Laemmli without colorant. The protein samples are subsequently separated on a Tris-Tricine 10% (Invitrogen) gel and the peptides are transferred to nitro-cellulose membranes (15% methanol; semi-dry transfer (BioRad apparatus; 24 V; 0.15 mA, 15 minutes). After blocking with 5% milk for 30 minutes, the proteins are detected with chemiluminescence (primary antibody: G20 (1/500; 2 hours); secondary antibody: anti-rabbit (Pierce; 1/6000; 1 hour). […]"}, "proteasome": {"system": "proteasome", "conditions": "inhibition of the proteasome; Nawaz et al. 1999 and others; cited from earlier work"}, "[1]": {"system": "MCF-7 breast cancer cell line", "test": "MCF-7 cell growth with synthetic peptides, crystal violet staining", "type": "cell-based, human", "conditions": "10^-5M, 72 hours, EMEM with 10% charcoal-stripped serum, vs control, FIG. 4", "protocol": "In order to provide a proof of principle that secretion of the ER-alpha breakdown product/peptide described here could relay or amplify the effect of estradiol toward the proliferation of ER-alpha-positive cells, we have treated MCF-7 cells with a synthetic peptide corresponding to this sequence (SEQ ID NO:2) and containing its post-translational modifications (FIG. 4). ER-alpha-positive MCF-7 breast cancer cell line were seeded in 96-well plates (3000 cells/well). Cells were then treated with or without (control) ER-alpha-17p or the SEQ ID NO:2 peptide both at 10^−5M for 72 hours. Cell growth was measured by crystal violet staining. Briefly, cell cultures were gently washed once with PBS, fixed with 1% glutaraldehyde in PBS (15 min, room temperature) and stained with 0.1% crystal violet (w/v in ddH2O; 30 min, room temperature). After removal of excess dye by rinsing under gently running tap water, cell-bound crystal violet was extracted with 1% Triton X-100 (v/v in ddH2O; room temperature, under agitation) and measured by spectrometry at 550 nm."}, "ER-alpha": {"system": "ER-alpha", "test": "ERE-driven luciferase reporter assay in MVLN cells", "type": "cell-based, human", "conditions": "10^-5M, 6 hours, serum free, FIG. 6, preliminary", "from_the_text": "In order to provide a proof of principle that secretion of the ER-alpha breakdown product/peptide described here could relay or amplify the effect of estradiol toward ER-alpha transcriptional activity, we have treated MVLN cells (MCF-7 stably transfected with an ERE-driven luciferase reporter gene; Pons et al., Biotechniques 1990; 9:450-459) with a synthetic peptide corresponding to this sequence (SEQ ID NO:2) and containing its post-translational modifications in serum free condition (FIG. 6).\nMVLN cells were cultured for 48 hours in EMEM containing 10% of charcoal-stripped serum prior treatment with E2 at 10^−10 M or ER-alpha-17p or SEQ ID NO:2 both at 10^−5M for. After 6 h treatment in serum free condition, cells were washed 2 times with PBS. Luciferase activity was then measured in cell lysates by luminometry using Luciferase Assay System (Promega) according to manufacturer instructions."}, "ER-alpha receptor": {"system": "ER-alpha receptor", "conditions": "competition with synthetic peptide; Gallo et al. 2007; cited from earlier work"}, "[2]": {"system": "breast cancer cell lines that are ER-alpha-positive", "conditions": "Gallo et al. 2007, 2008; cited from earlier work"}, "[3]": {"molecular_target": "T1, purified recombinant human ER-alpha (Homo sapiens, UniProt P03372)", "T1 sequence (P03372 1-595)": "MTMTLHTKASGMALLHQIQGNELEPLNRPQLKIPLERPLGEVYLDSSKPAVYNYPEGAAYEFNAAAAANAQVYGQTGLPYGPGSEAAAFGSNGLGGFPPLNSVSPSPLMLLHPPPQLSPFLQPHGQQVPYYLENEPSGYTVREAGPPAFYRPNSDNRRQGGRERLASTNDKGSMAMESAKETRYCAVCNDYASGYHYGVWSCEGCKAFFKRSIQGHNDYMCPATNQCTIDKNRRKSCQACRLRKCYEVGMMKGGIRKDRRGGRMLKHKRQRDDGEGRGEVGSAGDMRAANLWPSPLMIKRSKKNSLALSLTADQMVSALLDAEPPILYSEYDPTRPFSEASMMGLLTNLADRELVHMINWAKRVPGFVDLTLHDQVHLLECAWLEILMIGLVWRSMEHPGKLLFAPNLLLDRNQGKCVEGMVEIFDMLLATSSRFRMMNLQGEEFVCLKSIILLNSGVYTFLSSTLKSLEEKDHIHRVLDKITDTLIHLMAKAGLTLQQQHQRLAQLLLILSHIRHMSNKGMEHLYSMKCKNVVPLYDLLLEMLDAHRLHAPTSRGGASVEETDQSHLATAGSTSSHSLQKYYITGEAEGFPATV", "conditions": "Gallo et al. 2007; cited from earlier work"}}, "note": "Residues, ends and D or L forms follow the SMILES beside them. No end group written: not given here. *: point of attachment. Cbz = O=C(OCc1ccccc1)*"}
{"compound": "CC/C(=C(\\c1ccc(O)cc1)c1ccc(OCCN(C)C)cc1)c1ccccc1", "note": "[4-OHTamoxifen]", "values": [{"measurement": "production of the endogenous ER-alpha degradation product/peptide", "setting": "MCF-7 cells", "value": "decrease its production"}]}
{"compound": "C[C@]12CC[C@@H]3c4ccc(O)cc4C[C@@H](CCCCCCCCC[S+]([O-])CCCC(F)(F)C(F)(F)F)[C@H]3[C@@H]1CC[C@@H]2O", "note": "(some centres unmarked) [Fulvestrant]", "values": [{"measurement": "production of the endogenous ER-alpha degradation product/peptide", "setting": "MCF-7 cells", "value": "decrease its production"}]}
{"compound": "CC(C)C[C@@H](C=O)NC(=O)[C@H](CC(C)C)NC(=O)[C@H](CC(C)C)NC(=O)OCc1ccccc1", "note": "[MG-132] (Cbz-Leu-Leu-Leu-aldehyde)", "values": [{"measurement": "ER-alpha-dependent transcription", "setting": "proteasome", "value": "diminishes ER-alpha-dependent transcription"}]}
{"compound": "CC(=O)N[C@@H](CSC(=O)[C@]1([C@@H](O)C(C)C)NC(=O)[C@H](C)[C@@H]1O)C(=O)O", "note": "[lactacystine]", "values": [{"measurement": "ER-alpha-dependent transcription", "setting": "proteasome", "value": "diminishes ER-alpha-dependent transcription"}]}
{"compound": "K268RQRDDGEGRGEVGSAGDMRAANLWPSPLMIKRSKKNSLALSLT311 (KRQRDDGEGRGEVGSAGDMRAANLWPSPLMIKRSKKNSLALSLT; listed as Homo Sapiens) [SEQ ID NO:2, endogenous 44-residue ER-alpha degradation peptide K268-T311]", "values": [{"measurement": "MCF-7 cell proliferation (growth)", "setting": "[1]; listed as ER-alpha-44p", "value": "capable of inducing proliferation of cancer cells"}, {"measurement": "MCF-7 cell proliferation (growth)", "setting": "[1]; listed as SED ID NO:2", "value": "significant increase of their proliferation higher that the control ER-alpha-17p peptide"}, {"measurement": "ER-alpha transcriptional activity (luciferase)", "setting": "ER-alpha", "value": "significant increase of the ER-alpha transcriptional activity higher than the control ER-alpha-17p peptide"}]}
{"compound": "P295LMIKRSKK303NSLALSLT311 (PLMIKRSKK(Me)NSLALSLT; listed as Homo Sapiens) [ER-alpha-17p]", "values": [{"measurement": "MCF-7 cell proliferation (growth)", "setting": "[1]", "value": "capable of inducing proliferation of cancer cells"}, {"measurement": "transcriptional activity of the ER-alpha receptor", "setting": "ER-alpha receptor", "value": "increased transcriptional activity"}, {"measurement": "proliferation of ER-alpha-positive breast cancer cell lines", "setting": "[2]", "value": "increased proliferation"}, {"measurement": "binding to purified recombinant human ER-alpha", "setting": "[3]", "value": "binds to purified recombinant human ER-alpha"}]}
